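These data come from cells grown in 96-well plates and exposed to compound for 48 hours at five concentrations. GI50 = concentration required for 50% inhibition of growth.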 Activity calls are given as the source filed them. No stated cut-off is given here; in the data, active = GI50 up to about 1.1 µM and inactive = higher.
How the values were obtained:
Test in all cases: growth of human tumour cells (NCI), 48 h
786-0 = test system: 786-0
A498 = test system: A498
A549 = test system: A549
ACHN = test system: ACHN
BT-549 = test system: BT-549
CAKI-1 = test system: CAKI-1
CCRF-CEM = test system: CCRF-CEM
COLO 205 = test system: COLO 205
DU-145 = test system: DU-145
EKVX = test system: EKVX
HCT-116 = test system: HCT-116
HCT-15 = test system: HCT-15
HL-60 = test system: HL-60
HOP-62 = test system: HOP-62
HOP-92 = test system: HOP-92
HT-29 = test system: HT-29
Hs-578T = test system: Hs-578T
IGROV-1 = test system: IGROV-1
K562 = test system: K562
KM12 = test system: KM12
LOX IMVI = test system: LOX IMVI
M14 = test system: M14
MCF7 = test system: MCF7
MDA-MB-231 = test system: MDA-MB-231
MDA-MB-435 = test system: MDA-MB-435
MDA-N = test system: MDA-N
MOLT-4 = test system: MOLT-4
Malme-3M = test system: Malme-3M
NCI-H226 = test system: NCI-H226
NCI-H23 = test system: NCI-H23
NCI-H460 = test system: NCI-H460
NCI-H522 = test system: NCI-H522
NCI/ADR-RES = test system: NCI/ADR-RES
OVCAR-3 = test system: OVCAR-3
OVCAR-4 = test system: OVCAR-4
OVCAR-5 = test system: OVCAR-5
OVCAR-8 = test system: OVCAR-8
PC-3 = test system: PC-3
RPMI-8226 = test system: RPMI-8226
RXF 393 = test system: RXF 393
SF-268 = test system: SF-268
SF-295 = test system: SF-295
SF-539 = test system: SF-539
SK-MEL-28 = test system: SK-MEL-28
SK-MEL-2 = test system: SK-MEL-2
SK-MEL-5 = test system: SK-MEL-5
SK-OV-3 = test system: SK-OV-3
SN12C = test system: SN12C
SNB-19 = test system: SNB-19
SNB-75 = test system: SNB-75
SR = test system: SR
SW-620 = test system: SW-620
T47D = test system: T47D
TK-10 = test system: TK-10
U-251 = test system: U-251
UACC-257 = test system: UACC-257
UACC-62 = test system: UACC-62
HCC 2998 = test system: HCC 2998
UO-31 = test system: UO-31

Measured: GI50

O=C1C(c2c(O)[nH]c3ccc(Cl)cc23)=Nc2ccccc21
active: IGROV-1 0.352 µM
inactive: 786-0 1.99 µM | A498 5.01 µM | A549 3.58 µM | ACHN 3.86 µM | BT-549 66.4 µM | CAKI-1 3.83 µM | CCRF-CEM 27.4 µM | COLO 205 20 µM | DU-145 2.81 µM | EKVX 5.07 µM | HCT-116 1.98 µM | HL-60 28.8 µM | HOP-62 5.58 µM | HOP-92 8.02 µM | HT-29 5.09 µM | Hs-578T 3.43 µM | K562 7.71 µM | KM12 3.08 µM | LOX IMVI 3.66 µM | M14 6.85 µM | MCF7 12.2 µM | MDA-MB-231 2.51 µM | MDA-MB-435 4.3 µM | MDA-N 6.38 µM | MOLT-4 > 47 µM | Malme-3M 5.68 µM | NCI-H226 6.05 µM | NCI-H23 9.12 µM | NCI-H460 12.1 µM | NCI-H522 10.6 µM | NCI/ADR-RES 7.91 µM | OVCAR-3 3.66 µM | OVCAR-4 2.2 µM | OVCAR-5 8.11 µM | OVCAR-8 4.09 µM | PC-3 3.28 µM | RPMI-8226 5.09 µM | RXF 393 2.49 µM | SF-268 5.36 µM | SF-295 10.4 µM | SF-539 4.65 µM | SK-MEL-28 > 100 µM | SK-MEL-2 5.55 µM | SK-MEL-5 3.18 µM | SK-OV-3 3.08 µM | SN12C 17 µM | SNB-19 10.3 µM | SNB-75 4.99 µM | SR 9.02 µM | SW-620 25.4 µM | T47D 3.7 µM | TK-10 4.23 µM | U-251 4.98 µM | UACC-257 > 53.5 µM | UACC-62 11.8 µM
7.73 µM: HCT-15

COC(=O)[C@H]1[C@@H](C(C)C)O[C@@H](C(C)C)O[C@H]1C(F)(F)F
inactive: 786-0 > 100 µM | A498 > 100 µM | A549 > 100 µM | ACHN > 100 µM | BT-549 > 100 µM | CAKI-1 > 100 µM | CCRF-CEM > 100 µM | COLO 205 > 100 µM | DU-145 > 100 µM | EKVX > 100 µM | HCC 2998 > 100 µM | HCT-116 > 100 µM | HL-60 > 100 µM | HOP-62 > 100 µM | HOP-92 44.6 µM | HT-29 > 100 µM | Hs-578T > 100 µM | IGROV-1 37.9 µM | K562 > 100 µM | KM12 > 100 µM | LOX IMVI > 100 µM | M14 > 100 µM | MCF7 > 100 µM | MDA-MB-231 > 100 µM | MDA-MB-435 > 100 µM | MDA-N > 100 µM | MOLT-4 > 100 µM | Malme-3M > 100 µM | NCI-H226 > 100 µM | NCI-H23 > 100 µM | NCI-H460 > 100 µM | NCI-H522 > 100 µM | NCI/ADR-RES > 100 µM | OVCAR-3 > 100 µM | OVCAR-4 > 100 µM | OVCAR-5 > 100 µM | OVCAR-8 > 100 µM | PC-3 > 100 µM | RPMI-8226 > 100 µM | RXF 393 > 100 µM | SF-268 > 100 µM | SF-295 > 100 µM | SF-539 > 100 µM | SK-MEL-28 > 100 µM | SK-MEL-5 > 100 µM | SK-OV-3 > 100 µM | SN12C > 100 µM | SNB-19 > 100 µM | SNB-75 > 100 µM | SR > 100 µM | SW-620 > 100 µM | T47D > 100 µM | TK-10 > 100 µM | U-251 > 100 µM | UACC-257 > 100 µM | UACC-62 > 100 µM | UO-31 > 100 µM
> 100 µM: HCT-15

O=C(CCc1ccccc1)n1cccc1CO
> 100 µM: HCT-15
inactive: 786-0 > 100 µM | A498 > 100 µM | A549 > 100 µM | ACHN > 100 µM | BT-549 > 100 µM | CAKI-1 > 100 µM | CCRF-CEM > 100 µM | COLO 205 > 100 µM | DU-145 > 100 µM | EKVX > 100 µM | HCC 2998 > 100 µM | HCT-116 > 100 µM | HL-60 > 100 µM | HOP-62 > 100 µM | HT-29 > 100 µM | Hs-578T 60.3 µM | IGROV-1 > 100 µM | K562 > 100 µM | KM12 > 100 µM | LOX IMVI > 100 µM | M14 > 100 µM | MCF7 > 100 µM | MDA-MB-231 > 100 µM | MDA-MB-435 > 100 µM | MDA-N > 100 µM | MOLT-4 > 100 µM | Malme-3M > 100 µM | NCI-H226 > 100 µM | NCI-H23 > 100 µM | NCI-H460 > 100 µM | NCI-H522 > 100 µM | NCI/ADR-RES > 100 µM | OVCAR-3 > 100 µM | OVCAR-4 > 100 µM | OVCAR-5 > 100 µM | OVCAR-8 > 100 µM | PC-3 > 100 µM | RPMI-8226 > 100 µM | RXF 393 93.3 µM | SF-268 > 100 µM | SF-295 > 100 µM | SF-539 > 100 µM | SK-MEL-28 > 100 µM | SK-MEL-2 > 100 µM | SK-MEL-5 > 100 µM | SK-OV-3 > 100 µM | SN12C > 100 µM | SNB-19 > 100 µM | SNB-75 > 100 µM | SR > 100 µM | SW-620 > 100 µM | T47D 96.4 µM | TK-10 > 100 µM | U-251 > 100 µM | UACC-257 > 100 µM | UACC-62 > 100 µM | UO-31 > 100 µM

CN(C(=O)CCC(=O)O)c1ccccc1C(=O)O
> 100 µM: HCT-15
inactive: 786-0 > 100 µM | A498 > 100 µM | A549 > 100 µM | ACHN > 100 µM | BT-549 > 100 µM | CAKI-1 > 100 µM | CCRF-CEM > 100 µM | COLO 205 > 100 µM | DU-145 > 100 µM | EKVX > 100 µM | HCC 2998 > 100 µM | HCT-116 > 100 µM | HL-60 > 100 µM | HOP-92 > 100 µM | HT-29 > 100 µM | Hs-578T > 100 µM | IGROV-1 > 100 µM | K562 > 100 µM | KM12 > 100 µM | LOX IMVI > 100 µM | M14 > 100 µM | MCF7 > 100 µM | MDA-MB-231 > 100 µM | MDA-MB-435 > 100 µM | MDA-N > 100 µM | MOLT-4 > 100 µM | Malme-3M > 100 µM | NCI-H226 > 100 µM | NCI-H23 > 100 µM | NCI-H460 > 100 µM | NCI/ADR-RES > 100 µM | OVCAR-3 > 100 µM | OVCAR-4 > 100 µM | OVCAR-5 > 100 µM | OVCAR-8 > 100 µM | PC-3 > 100 µM | RPMI-8226 > 100 µM | RXF 393 > 100 µM | SF-268 > 100 µM | SF-295 > 100 µM | SF-539 > 100 µM | SK-MEL-28 > 100 µM | SK-MEL-2 > 100 µM | SK-MEL-5 > 100 µM | SK-OV-3 > 100 µM | SNB-19 > 100 µM | SNB-75 > 100 µM | SR > 100 µM | SW-620 > 100 µM | T47D > 100 µM | TK-10 > 100 µM | U-251 > 100 µM | UACC-257 40.4 µM | UACC-62 > 100 µM | UO-31 > 100 µM

Reference: ChEMBL document CHEMBL1201862, “PubChem BioAssay data set” (2004)
